#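 Tested at 5 concentrations; 48 h exposure; 96-well plates; endpoints linearly interpolated, else capped at highest concentration. GI50 is the concentration that inhibits growth by half. TGI denotes the concentration required for complete inhibition of growth.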
# How the values were obtained:
# Experiment in all cases: NCI-60 cell line screen, 48 h
# [1] = tested on: HCC-2998 colon
# [2] = tested on: SK-OV-3 ovarian
# [3] = tested on: COLO 205 colon
# [4] = tested on: UACC-257 melanoma
# [5] = tested on: NCI-H522 lung
# [6] = tested on: SN12C renal
# [7] = tested on: M14 melanoma
# [8] = tested on: UACC-62 melanoma
# [9] = tested on: HOP-92 NSCLC
# [10] = tested on: SR leukemia
SMILES,GI50 [1] [µM],TGI [1] [µM],GI50 [2] [µM],TGI [2] [µM],GI50 [3] [µM],TGI [3] [µM],GI50 [4] [µM],TGI [4] [µM],GI50 [5] [µM],TGI [5] [µM],GI50 [6] [µM],TGI [6] [µM],GI50 [7] [µM],TGI [7] [µM],GI50 [8] [µM],TGI [8] [µM],GI50 [9] [µM],TGI [9] [µM],GI50 [10] [µM],TGI [10] [µM]
COc1cc2c(cc1OCCCCOc1cc3c(cc1OC)C(=O)N1CCC[C@H]1CN3)N=C[C@@H]1CCCN1C2=O,2,5.64,7.06,> 100,1.3,5.33,5.64,> 100,0.072,0.386,2.29,18.2,2.37,7.19,1.3,3.03,0.366,3.3,–,–
Cc1cc2c3ccc(C)[n+](C)c3ccc2n1C,2.6,19.8,2.88,9.41,1.75,5.52,3.45,16.1,4.83,29.3,2.69,15.9,17.2,> 100,8.97,22.6,1.97,19.6,4.24,> 100
COc1cc2nc(N3CCCC3)nc(NCC3CCCCC3)c2cc1OC,0.444,1.62,1.75,3.24,0.223,0.499,0.364,1.36,1.56,3.29,1.48,2.91,1.44,2.88,1.74,3.21,1.11,2.46,0.254,1.08
C[C@]12CC[C@H]3[C@@H](CCC4=CC(=O)CC[C@@H]43)[C@@H]1CC[C@@H]2OC(=O)CCc1ccccc1,29.7,> 78.2,44.1,> 100,16.3,40.1,24.6,59.5,19.4,41.7,15.2,29.7,21.2,46.4,9.64,35.7,20.1,64.4,11.2,> 53.4
CC(C)CC(CC1=CCC2CC1C2(C)C)C1=C(O)C(C)(C)C(=O)C(C)(C)C1=O (stereo not given),–,–,0.256,0.733,–,–,0.256,0.792,0.271,0.992,0.324,> 100,0.404,5.86,0.266,1.17,0.191,0.499,–,–
N/C(=N\N=C\c1ccc(-c2ccccc2)cc1)N[N+](=O)[O-],–,–,3.87,> 100,3.38,> 42.1,> 100,> 100,2.13,> 100,7.3,> 100,1.65,> 100,0.771,> 100,2.18,> 100,0.692,> 100
Brc1cccc(C2SCc3nc4ccccc4n32)c1 (stereo not given),–,–,–,65,–,38.6,–,–,–,36.6,–,33.2,–,53.1,–,31,–,35.6,–,57.7
O=C(O)C1(P(=O)(O)O)CC1,–,> 100,–,> 100,–,> 100,–,> 100,–,> 100,–,> 100,–,76.4,–,> 100,–,–,–,–
COc1ccc(NC(=O)/C(=N\NC(=O)C[n+]2ccccc2)c2c(O)c3ccc(O)cc3oc2=O)c([N+](=O)[O-])c1,–,> 100,–,> 100,–,> 100,–,> 100,–,> 100,–,> 100,–,> 100,–,> 100,–,> 100,–,–
COc1cc2c(c(OC)c1OC)-c1ncc3cc(OC)c(OC)c(OC)c3c1C2,16.4,30.7,47.5,> 100,25.8,50.3,12.1,27.2,16.1,43.2,17.6,73.7,50.7,> 100,17.4,34,52.6,> 100,–,–
Clc1cc(Cl)c(OCC#CI)cc1Cl,19.6,33.8,–,–,1.57,3.06,2.79,11.9,1.53,3.7,10.1,23,2.13,5.41,5.05,19.4,15.1,37.1,–,–
C[Si](C)(C)OC1(C#N)C2C3CC4C2C(=O)C2C4C3C21 (stereo not given),–,> 100,–,> 100,–,> 100,–,> 100,–,–,–,> 100,–,> 100,–,> 100,–,–,–,> 100
C=C1COC(/C=C(\C)CC/C=C(\C)CCl)C1 (stereo not given),–,> 100,–,> 100,–,> 100,–,–,–,> 100,–,> 100,–,> 100,–,> 100,–,> 100,–,–
COc1ccc(C2CC(c3cc(OC)c(OC)c(OC)c3)=NN2C(C)=O)cc1OCC(=O)Nc1nc2ccc(C(F)(F)F)cc2s1 (stereo not given),> 100,> 100,5.75,39.1,3.94,> 100,–,–,2.71,> 100,3.31,> 100,6.44,> 100,3.77,> 100,1.7,4.02,–,–
c1ccc(SC(CCCCC(Sc2ccccc2)Sc2ccccc2)Sc2ccccc2)cc1,–,> 100,–,> 100,–,> 100,–,> 100,–,–,–,> 100,–,> 100,–,> 100,–,> 100,–,> 100
CN(C)c1ccc2c(c1)Sc1cc(N(C)C)ccc1N2C(=O)c1ccccc1,73.2,> 100,54.8,> 100,> 100,> 100,> 100,> 100,–,–,> 100,> 100,75,> 100,17.5,> 100,5.04,89.9,14.6,> 100
C=CCOC1OC(CO[Si](C)(C)C(C)(C)C)C(OCc2ccccc2)C(OCc2ccccc2)C1OCc1ccccc1 (stereo not given),–,–,–,> 100,–,> 100,–,> 100,–,> 100,–,> 100,–,> 100,–,> 100,–,> 100,–,> 100

SMILES,GI50 [1] [µM],TGI [1] [µM],GI50 [2] [µM],TGI [2] [µM],GI50 [3] [µM],TGI [3] [µM],GI50 [4] [µM],TGI [4] [µM],GI50 [5] [µM],TGI [5] [µM],GI50 [6] [µM],TGI [6] [µM],GI50 [7] [µM],TGI [7] [µM],GI50 [8] [µM],TGI [8] [µM],GI50 [9] [µM],TGI [9] [µM],GI50 [10] [µM],TGI [10] [µM]
COc1ccc(C2=C(Cl)c3cc(OC)c(OC)cc3C2Cl)cc1OC (stereo not given),–,–,–,53.9,–,32.5,–,32,–,–,–,38.4,–,34.9,–,31,–,46.1,–,–
Cc1cc(N(CCC#N)CCC#N)ccc1/C=C/C(=O)Nc1cccc(Cl)c1,–,> 100,–,> 100,–,> 100,–,> 100,–,> 100,–,> 100,–,> 100,–,> 100,–,> 100,–,–
COc1ccc(N=c2ssc3c(=S)ssc23)cc1,–,> 100,–,> 100,–,–,–,–,–,35.5,–,> 100,–,48.6,–,61.8,–,70.3,–,20.1
C=C1CC[C@@H]2[C@](C)(COC(C)=O)[C@@H](O)CC[C@@]2(C)[C@@H]1COc1ccc2ccc(=O)oc2c1,> 100,> 100,–,–,–,–,> 100,> 100,> 100,> 100,> 100,> 100,> 100,> 100,> 100,> 100,> 100,> 100,87.4,> 100
O=C1OC(CCCl)(c2ccccc2)CC1CN1CCOCC1 (stereo not given),–,> 100,–,> 100,–,35.4,–,73.4,–,33.5,–,90.7,–,57.1,–,49.4,–,31.6,–,–
c1ccc2c(c1)c(NCCCCN1CCCCC1)cc1c3ccccc3c(NCCCCN3CCCCC3)cc21,18.2,41.6,18.3,48.1,21.9,47.7,2.67,6.36,66.2,> 100,17.2,35.4,–,–,19.5,35.4,20.4,52.7,–,–
C/C(=N\Nc1ccc2ccccc2n1)c1ccccn1,0.133,2.51,0.132,13.6,< 0.0195,2.7,0.0579,0.326,–,0.21,0.0914,14.9,0.0504,1.33,0.104,0.652,–,–,< 0.0335,2.38
CCN1CCC(CCOC)(CN2c3ccccc3Sc3ccc(Cl)cc32)C1 (stereo not given),1.63,3.2,1.91,3.88,1.71,3.29,1.93,3.87,1.74,3.59,12,28.2,1.92,3.62,2.05,3.81,–,–,4.01,> 100
COc1ccc2cc(-c3ccoc(=O)c3-c3cc(OC)c(OC)c(OC)c3)ccc2c1,0.0744,0.426,0.389,> 100,0.0449,0.212,–,–,0.0206,0.113,0.639,> 100,0.0681,> 100,0.0536,> 100,2.49,> 100,0.0301,–
CN(C)c1nc(=Nc2ccc3ccccc3c2)ss1,–,> 100,–,> 100,–,23.2,–,66.8,–,65.9,–,> 100,–,> 100,–,> 100,–,–,–,75.3
CCOC(=O)C(=O)Nc1c(CC)cccc1C(C)C,–,> 100,–,> 100,–,> 100,–,> 100,–,–,–,> 100,–,> 100,–,> 100,–,> 100,–,–
C=CC(=O)N1CCN(c2ccc3cccc(NC(=O)c4cnc(C)cn4)c3n2)CC1,5.32,23.6,–,–,6.26,30,9.21,36.7,1.99,17.8,2.47,16.2,3.05,21.3,2.46,15.6,2.68,> 100,0.838,12.7
COc1cc(C(=O)C/C(CCC(=O)Nc2ccccc2[N+](=O)[O-])=N\NC(=O)CC#N)ccc1O,–,> 100,–,> 100,–,> 100,–,> 100,–,> 100,–,> 100,–,> 100,–,> 100,–,–,–,–
Cn1c(/C=C(\O)c2ccc(Cl)cc2)nc2ccccc21,–,> 100,–,–,–,> 100,–,67.1,–,> 100,–,> 100,–,> 100,–,> 100,–,–,–,> 100
CCOC(=O)c1nc2ccc([N+](=O)[O-])cc2c2c1CCO2,–,> 100,–,> 100,–,> 100,–,> 100,–,> 100,–,> 100,–,> 100,–,> 100,–,–,–,–
Cc1ccc(C2=NOC3=c4ccccc4=CSC3=C2c2ccc([N+](=O)[O-])cc2)cc1,24.4,> 100,6.91,49,35.8,> 100,44.4,> 100,12.5,68.5,18.3,> 100,18.6,> 100,14.5,31.3,18,68.2,–,–
COc1ccc(C(OCC2OC(n3ccc(NC(=O)c4ccccc4)nc3=O)C(O)C2O)(c2ccccc2)c2ccccc2)cc1 (stereo not given),–,12.6,–,20.6,–,3.7,–,21.1,–,5.61,–,3.2,–,3.62,–,21,–,–,–,4.96
